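Cultured in 96-well plates, cells were exposed to test compound for 48 hours across five concentrations. Here, GI50 denotes the concentration required for 50% inhibition of growth.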 Active and inactive are the calls of the source. Cut-off read from the data, not from the text of the source: active = GI50 up to about 1.1 µM and inactive = higher.
How the values were obtained:
Assay in all cases: NCI anticancer screen, dose series, 48 h
[1] = tested on: HOP-92
[2] = tested on: HT-29
[3] = tested on: CAKI-1
[4] = tested on: OVCAR-4
[5] = tested on: IGROV-1
[6] = tested on: Hs-578T
[7] = tested on: COLO 205
[8] = tested on: SK-MEL-2
[9] = tested on: SR
[10] = tested on: MDA-N
[11] = tested on: SF-268
[12] = tested on: MDA-MB-231
[13] = tested on: PC-3
[14] = tested on: HOP-62
[15] = tested on: SW-620
[16] = tested on: U-251
[17] = tested on: 786-0
[18] = tested on: OVCAR-8
[19] = tested on: A549
[20] = tested on: HOP-18

| SMILES | GI50 [1] | GI50 [2] | GI50 [3] | GI50 [4] | GI50 [5] | GI50 [6] | GI50 [7] | GI50 [8] | GI50 [9] | GI50 [10] | GI50 [11] | GI50 [12] | GI50 [13] | GI50 [14] | GI50 [15] | GI50 [16] | GI50 [17] | GI50 [18] | GI50 [19] | GI50 [20] |
| --- | --- | --- | --- | --- | --- | --- | --- | --- | --- | --- | --- | --- | --- | --- | --- | --- | --- | --- | --- | --- |
| O=C1C(=O)N(C2CCCCC2)C(=S)N1C1CCCCC1 | > 100 µM (inactive) | > 100 µM (inactive) | > 100 µM (inactive) | > 100 µM (inactive) | > 100 µM (inactive) | > 100 µM (inactive) | > 100 µM (inactive) | > 100 µM (inactive) | > 100 µM (inactive) | > 100 µM (inactive) | > 100 µM (inactive) | > 100 µM (inactive) | > 100 µM (inactive) | > 100 µM (inactive) | > 100 µM (inactive) | > 100 µM (inactive) | > 100 µM (inactive) | > 100 µM (inactive) | > 100 µM (inactive) | – |
| O=C(O)/C=N\N=c1[nH]c2ccccc2[nH]1 | > 100 µM (inactive) | > 100 µM (inactive) | > 100 µM (inactive) | > 100 µM (inactive) | > 100 µM (inactive) | > 100 µM (inactive) | > 100 µM (inactive) | > 100 µM (inactive) | > 100 µM (inactive) | > 100 µM (inactive) | > 100 µM (inactive) | > 100 µM (inactive) | > 100 µM (inactive) | > 100 µM (inactive) | > 100 µM (inactive) | > 100 µM (inactive) | > 100 µM (inactive) | > 100 µM (inactive) | > 100 µM (inactive) | – |
| O=C(O)c1ccccc1/N=N/c1c(O)c(S(=O)(=O)O)cc2cc(S(=O)(=O)O)ccc12 | > 100 µM (inactive) | > 100 µM (inactive) | > 100 µM (inactive) | > 100 µM (inactive) | > 100 µM (inactive) | > 100 µM (inactive) | > 100 µM (inactive) | > 100 µM (inactive) | > 100 µM (inactive) | > 100 µM (inactive) | > 100 µM (inactive) | > 100 µM (inactive) | > 100 µM (inactive) | > 100 µM (inactive) | > 100 µM (inactive) | > 100 µM (inactive) | > 100 µM (inactive) | > 100 µM (inactive) | > 100 µM (inactive) | – |
| c1ccc2c(c1)[nH]c1c3ccccc3sc21 | > 100 µM (inactive) | > 100 µM (inactive) | > 100 µM (inactive) | > 100 µM (inactive) | > 100 µM (inactive) | > 100 µM (inactive) | > 100 µM (inactive) | > 100 µM (inactive) | 23 µM (inactive) | > 100 µM (inactive) | > 100 µM (inactive) | > 100 µM (inactive) | > 100 µM (inactive) | > 100 µM (inactive) | > 100 µM (inactive) | 89.3 µM (inactive) | > 100 µM (inactive) | > 100 µM (inactive) | 77.4 µM (inactive) | – |
| CC(C)(C)C(=O)Oc1ccc(/C=C/C(=O)c2ccc(OC(=O)C(C)(C)C)cc2)cc1 | > 100 µM (inactive) | 47.3 µM (inactive) | 21.1 µM (inactive) | 56.2 µM (inactive) | > 100 µM (inactive) | 18 µM (inactive) | 69.7 µM (inactive) | > 100 µM (inactive) | 20.7 µM (inactive) | 39.1 µM (inactive) | 74 µM (inactive) | > 100 µM (inactive) | > 100 µM (inactive) | 82.2 µM (inactive) | > 100 µM (inactive) | 40.2 µM (inactive) | 36.7 µM (inactive) | 40.4 µM (inactive) | 67.6 µM (inactive) | – |
| CC(C)C(Br)CC/C(CBr)=C(\Cl)CCl (centres undefined) | 2.06 µM (inactive) | 2.07 µM (inactive) | 4.98 µM (inactive) | 2.5 µM (inactive) | 1.89 µM (inactive) | 3.11 µM (inactive) | 3.4 µM (inactive) | 2.19 µM (inactive) | 0.598 µM (active) | 1.85 µM (inactive) | 4.37 µM (inactive) | 2.64 µM (inactive) | 6.08 µM (inactive) | 16.3 µM (inactive) | 1.82 µM (inactive) | 6.25 µM (inactive) | 1.81 µM (inactive) | 3.1 µM (inactive) | 16.3 µM (inactive) | – |
| CC(=O)Nc1ccc(/C=c2\sc3nnc(/C=C/c4ccccc4)n3c2=O)cc1 | – | – | > 50 µM (inactive) | > 50 µM (inactive) | > 50 µM (inactive) | – | > 50 µM (inactive) | > 50 µM (inactive) | – | – | > 50 µM (inactive) | – | – | > 50 µM (inactive) | > 50 µM (inactive) | > 50 µM (inactive) | > 50 µM (inactive) | > 50 µM (inactive) | > 50 µM (inactive) | 17.1 µM (inactive) |
| CCCCCc1cc2cc3c(c(O)c2c(=O)[nH]1)C1(CCC3)C(=O)c2c(O)c3c(c(O)c2C1=O)C(=O)C(OC)=CC3=O (centres undefined) | 0.433 µM (active) | 0.748 µM (active) | 0.502 µM (active) | 1.44 µM (inactive) | 1.03 µM (active) | 0.743 µM (active) | 0.276 µM (active) | 1.24 µM (inactive) | 0.573 µM (active) | 1.41 µM (inactive) | 0.807 µM (active) | 0.792 µM (active) | 1.1 µM (active) | 3.33 µM (inactive) | 0.681 µM (active) | 0.621 µM (active) | 0.746 µM (active) | 0.714 µM (active) | 1 µM (active) | – |
| NCC(O)CNC(=O)c1ccc(-c2ccc(-c3ccc(C(=O)NCC(O)CN)cc3)o2)cc1 (centres undefined) | 22.2 µM (inactive) | > 100 µM (inactive) | 81.7 µM (inactive) | 36.5 µM (inactive) | 30.8 µM (inactive) | 25.3 µM (inactive) | 81.8 µM (inactive) | 53.7 µM (inactive) | 67.5 µM (inactive) | > 100 µM (inactive) | 28.2 µM (inactive) | 24.5 µM (inactive) | 21.2 µM (inactive) | 25.3 µM (inactive) | > 100 µM (inactive) | 21.5 µM (inactive) | 23.3 µM (inactive) | 29.6 µM (inactive) | 37.4 µM (inactive) | – |
| CCN(CC)CCN1C=CC(C)C(C(=O)O)C1C(N)=O (centres undefined) | > 100 µM (inactive) | > 100 µM (inactive) | > 100 µM (inactive) | > 100 µM (inactive) | > 100 µM (inactive) | > 100 µM (inactive) | > 100 µM (inactive) | > 100 µM (inactive) | > 100 µM (inactive) | > 100 µM (inactive) | > 100 µM (inactive) | > 100 µM (inactive) | > 100 µM (inactive) | > 100 µM (inactive) | > 100 µM (inactive) | > 100 µM (inactive) | > 100 µM (inactive) | > 100 µM (inactive) | > 100 µM (inactive) | – |
| COc1cc(C2CC(C)(O)Oc3cc4c(cc32)OCO4)cc(OC)c1OC (centres undefined) | 2.56 µM (inactive) | 0.334 µM (active) | 0.417 µM (active) | 0.938 µM (active) | 0.668 µM (active) | 0.263 µM (active) | 0.419 µM (active) | 1.04 µM (active) | 0.374 µM (active) | 0.166 µM (active) | 0.962 µM (active) | 0.252 µM (active) | 0.274 µM (active) | 0.501 µM (active) | 0.33 µM (active) | 0.358 µM (active) | 0.375 µM (active) | 0.421 µM (active) | 2.49 µM (inactive) | – |
| COC(=O)C1(NC(=O)C(N)CC(=O)O)C(C)C1C (centres undefined) | > 100 µM (inactive) | > 100 µM (inactive) | > 100 µM (inactive) | > 100 µM (inactive) | > 100 µM (inactive) | > 100 µM (inactive) | > 100 µM (inactive) | > 100 µM (inactive) | > 100 µM (inactive) | > 100 µM (inactive) | > 100 µM (inactive) | > 100 µM (inactive) | > 100 µM (inactive) | > 100 µM (inactive) | > 100 µM (inactive) | > 100 µM (inactive) | > 100 µM (inactive) | > 100 µM (inactive) | > 100 µM (inactive) | – |
| N#CC1=C(N)N(/N=C/c2ccco2)C(c2ccco2)C1(C#N)C#N (centres undefined) | 16.6 µM (inactive) | 14.2 µM (inactive) | 15.2 µM (inactive) | 15.4 µM (inactive) | 14.6 µM (inactive) | 22.2 µM (inactive) | 14.2 µM (inactive) | 24.1 µM (inactive) | 16 µM (inactive) | 18.4 µM (inactive) | 24.6 µM (inactive) | 19.5 µM (inactive) | 23 µM (inactive) | 23.2 µM (inactive) | 11.2 µM (inactive) | 18.9 µM (inactive) | 17.2 µM (inactive) | 19.7 µM (inactive) | 19.6 µM (inactive) | – |
| CC(=O)c1ccccc1NCC(=O)Nn1cnc2ccc(S(=O)(=O)Nc3ccccc3C(C)=O)cc2c1=O | > 100 µM (inactive) | > 100 µM (inactive) | > 100 µM (inactive) | > 100 µM (inactive) | 2.53 µM (inactive) | 33.7 µM (inactive) | > 100 µM (inactive) | > 100 µM (inactive) | > 100 µM (inactive) | > 100 µM (inactive) | > 100 µM (inactive) | > 100 µM (inactive) | > 100 µM (inactive) | > 100 µM (inactive) | > 100 µM (inactive) | > 100 µM (inactive) | > 100 µM (inactive) | > 100 µM (inactive) | > 100 µM (inactive) | – |
| Cc1ccc2c3c(cnc2n1)C(=O)OCCN3C | > 100 µM (inactive) | > 100 µM (inactive) | > 100 µM (inactive) | > 100 µM (inactive) | > 100 µM (inactive) | > 100 µM (inactive) | > 100 µM (inactive) | > 100 µM (inactive) | > 100 µM (inactive) | > 100 µM (inactive) | > 100 µM (inactive) | > 100 µM (inactive) | > 100 µM (inactive) | > 100 µM (inactive) | > 100 µM (inactive) | > 100 µM (inactive) | > 100 µM (inactive) | > 100 µM (inactive) | > 100 µM (inactive) | – |
